Patent US20080175902A1, “Methods for slowing the progression of multiple sclerosis” (University of Plymouth, priority 2006, published 2008)

Tests used:
[1] = system: patients with multiple sclerosis; assay: Patient assessment of treatment benefit at visit 8; format: in vivo, human; details: patient assessment at visit 8
Description: At visit 8 in the study described in Examples 1 and 2, patients were asked uestions about whether treatment had improved pain, tremor, spasticity, or ymptoms. […] Overall, more patients perceived an improvement in spasticity and pain when taking the active treatments than when taking placebo. Difference in perception of improvement in tremor was not statistically significant and no treatment effect on bladder symptoms was identified. Although there was no stratification for these specific symptoms between groups, the groups were broadly balanced for these symptoms apart from bladder symptoms, where there were fewer patients with urinary symptoms in the group taking, delta-9-THC.

[2] = system: patients with multiple sclerosis; assay: Ashworth score, 52 week follow up; format: in vivo, human
Description: In Example 4, the study described in Examples 1-3 above was continued to determine if long-term therapy with D9-TCH or cannabis plant extract would affect the progression of MS. At the end of week 15, patients were offered the opportunity to resume medication at the previously determined dose for a maximum of 52 weeks. If patients decided not to continue medication, the reasons for non-continuance were documented. Throughout the study, capsule compliance was checked at clinic visits by counting the number of capsules returned. Urine samples for cannabinoid analysis were collected at each clinic visit during the follow up phase in order to evaluate potential cannabis use in the placebo group.
(§1) In order to reduce the potential for unmasking bias from treatment side effects, two study personnel were used at each centre. A treating physician monitored the dosage, side effects, and patient wellbeing, while an assessor (usually a physiotherapist) measured the Ashworth score, timed 10 metre walk, and Rivermead Mobility Index (RMI). […] Assessors remained blinded to any discussion of dosage or side effects, and when evaluating patients' spasticity, were instructed not to have access to their assessment scores from previous visits. Self completion booklets containing the General Health Questionnaire-30 (GHQ-30), category rating scales (asking patients to assess any change in their symptoms at that point in the study compared with how they were before they started medication, and measuring irritability, depression, tiredness, muscle stiffness, tremor, pain, sleep, muscle spasms, and energy levels), the UK Neurological Disability Scale (UKNDS), and the Barthel Index (BI) were sent to participants just prior to week 27 and week 52. The Expanded Disability Status Scale (EDSS) was used at week 52.
As set forth in FIG. 5, 95% Confidence intervals for differences in means (active minus placebo) of changes in total Ashworth score at each visit are shown. […] For these patients, their last Ashworth score (visit 10) was carried forward as their final measured response. […]

[3] = system: patients with multiple sclerosis; assay: Category rating scales, 52 week follow up; format: in vivo, human; details: category rating scale, 52 week follow up study
Description: as §1
Times taken to complete a 10 metre walk were analysed using the Kruskal-Wallis test, and non-parametric methods were used to produce confidence intervals for the median. The RMI, UKNDS, postal BI, and GHQ-30 were each analysed using non-parametric analysis of variance to compare the groups. EDSS scores were analysed using Fisher's exact test. Category rating scales were analysed using contingency table analysis. Comparison was made between patients choosing to continue on medication and those who chose to discontinue, by baseline Ashworth scores, RMI, EDSS, age, weight, ambulatory status, type of disease, sex, and use of urinary catheter. No adjustments were made for multiple comparisons.

[4] = system: patients with multiple sclerosis with problematic spasticity; assay: Ashworth score of spasticity, randomized placebo-controlled 15 week study; format: in vivo, human; details: baseline to 13 weeks follow-up
[5] = system: patients with multiple sclerosis; assay: Adverse events reported by patients, 15 week study
[6] = system: patients with multiple sclerosis; assay: Timed 10 meter walk, 15 week study; format: in vivo, human
Description: Secondary outcomes were also measured in the above-described study. Such secondary outcomes included the Rivermead mobility index (See e.g. Collen, F. M. et al., The Rivermead mobility index: a further development of the Rivermead motor assessment. Int. Disanil. Stud. 1991; 13:50 54) hereby incorporated by reference in its entirety, a timed 10 meter walk, four self completion questionnaires—the United Kingdom neurological disability score (See e.g. Sharrack, B., Hughes R. A., The Guy's neurological disability scale (GNDS): a new disability measure for multiple sclerosis. Mult. Sder. 1999; 5: 223-33), and a series of nine category-rating scales. For the category-rating scale assessment, patients were asked to assess how their symptoms had been over the previous week compared with how they were just before the study started. Categories included irritability, depression, tiredness, muscle stiffness, tremor, pain, sleep, muscle spasms, and amount of energy.
With respect to secondary outcome measures, 322 patients provided at least one baseline walk time. Of these, seven (1 cannabis extract, 3 delta-9-THC, 3 placebo) dropped out of the trial. Walk times were obtained from 278 patients at visit seven. In total, 20 patients were unable to walk (8 cannabis extract, 5 delta-9-THC, 7 placebo) and very large walk times were substituted for these individuals.

[7] = system: multiple sclerosis patients; details: 15 week trial; cited from earlier work
[8] = system: patients with multiple sclerosis; assay: Timed 10 metre walk / ability to walk, 52 week follow up; format: in vivo, human; details: end of 52 week study
Description: (§2) In order to reduce the potential for unmasking bias from treatment side effects, two study personnel were used at each centre. A treating physician monitored the dosage, side effects, and patient wellbeing, while an assessor (usually a physiotherapist) measured the Ashworth score, timed 10 metre walk, and Rivermead Mobility Index (RMI). […] Assessors remained blinded to any discussion of dosage or side effects, and when evaluating patients' spasticity, were instructed not to have access to their assessment scores from previous visits. […]
(§3) Times taken to complete a 10 metre walk were analysed using the Kruskal-Wallis test, and non-parametric methods were used to produce confidence intervals for the median. The RMI, UKNDS, postal BI, and GHQ-30 were each analysed using non-parametric analysis of variance to compare the groups. EDSS scores were analysed using Fisher's exact test. Category rating scales were analysed using contingency table analysis. […]

[9] = system: patients with multiple sclerosis; assay: Rivermead Mobility Index (RMI), 52 week follow up; format: in vivo, human; details: FIG. 6
Description: as §2, §3

[10] = system: patients with multiple sclerosis; assay: Serious adverse events (hospital admissions), 52 week follow up; format: in vivo, human
Description: During this study, all hospital admissions were classed as serious adverse events.

SMILES: CCCCCc1cc(O)c2c(c1)OC(C)(C)[C@@H]1CCC(C)=C[C@@H]21 (relative stereo) [delta-9-THC, Delta-9-Tetrahydrocannabinol]
- Bladder symptom improvement: No, % of patients [1]: 59%
- Bladder symptom improvement: No, number of patients [1]: 97
- Bladder symptom improvement: Yes, % of patients [1]: 40%
- Bladder symptom improvement: Yes, number of patients [1]: 67
- Pain improvement: No, % of patients [1]: 50%
- Pain improvement: No, number of patients [1]: 64
- Pain improvement: Yes, % of patients [1]: 50%
- Pain improvement: Yes, number of patients [1]: 64
- Spasticity improvement: No, % of patients [1]: 40%
- Spasticity improvement: No, number of patients [1]: 73
- Spasticity improvement: Yes, % of patients [1]: 60%
- Spasticity improvement: Yes, number of patients [1]: 108
- Tremor improvement: No, % of patients [1]: 60%
- Tremor improvement: No, number of patients [1]: 67
- Tremor improvement: Yes, % of patients [1]: 40%
- Tremor improvement: Yes, number of patients [1]: 44
- Mean (SD) difference in Ashworth scores from baseline to end of study ([2]; 52 week follow up): 1.82 (8.12)
- improvement on the Ashworth scale from a baseline mean of around 22 ([2]; 52 week follow up): approximately 2 points
- effect on progression of MS (spasticity and disability) ([2]; end of the 52 week treatment period): profound effects in slowing the progression of MS
- Depression: Deterioration, % [3]: 17 (17) %
- Depression: Improvement, % [3]: 26%
- Depression: Same, % [3]: 57%
- Energy: Deterioration, % [3]: 20%
- Energy: Improvement, % [3]: 24%
- Energy: Same, % [3]: 56%
- Irritability: Deterioration, % [3]: 15 (15) %
- Irritability: Improvement, % [3]: 30%
- Irritability: Same, % [3]: 55%
- Pain: Deterioration, % [3]: 16%
- Pain: Improvement, % [3]: 28%
- Pain: Same, % [3]: 56%
- Shaking: Deterioration, % [3]: 19 (19) %
- Shaking: Improvement, % [3]: 26%
- Shaking: Same, % [3]: 55%
- Sleep: Deterioration, % [3]: 12%
- Sleep: Improvement, % [3]: 34%
- Sleep: Same, % [3]: 54%
- Spasms: Deterioration, % [3]: 25%
- Spasms: Improvement, % [3]: 29%
- Spasms: Same, % [3]: 46%
- Spasticity: Deterioration, % [3]: 33%
- Spasticity: Improvement, % [3]: 33%
- Spasticity: Same, % [3]: 34%
- Tiredness: Deterioration, % [3]: 21%
- Tiredness: Improvement, % [3]: 25%
- Tiredness: Same, % [3]: 54%
- Mean (SD) change in Ashworth score, lower-body muscle groups [4]: 1.39 (5.21)
- Mean (SD) change in Ashworth score, upper-body muscle groups [4]: 0.48 (4.70)
- Mean (SD) change in total Ashworth score (baseline minus follow-up) ([4]; all muscle groups): 1.86 (7.95)
- Adverse event: Blocked/insertion of suprapubic catheter (number) [5]: 0
- Adverse event: Constipation (number) [5]: 0
- Adverse event: Grand mal seizure (number) [5]: 0
- Adverse event: MS relapse or possible relapse (number) [5]: 1
- Adverse event: Other (number) [5]: 11
- Adverse event: Pneumonia (number) [5]: 2
- Adverse event: Urinary tract infection (number) [5]: 3
- reduction of median time taken to walk 10 meters from baseline to follow-up ([6]; baseline to visit 7): 12%
- patients unable to walk (number) ([6]; visit 7): 5
- slowing of progression of MS [7]: did not yield results indicating that cannabinoids including dronabinol slowed progression of MS
- proportion of patients unable to walk at the end of the study who could walk at baseline [8]: 6%
- treatment effect on Rivermead Mobility Index [9]: Suggestion of treatment effect
- serious adverse events reported (total number) ([10]; 52 week follow up, all hospital admissions): 24
- Serious adverse event: Insertion of baclofen pump (frequency) ([10]; CM): 0
- Serious adverse event: Limb fracture (frequency) ([10]; CM): 0
- Serious adverse event: Other (frequency) ([10]; CM): 8
- Serious adverse event: Pneumonia/chest infection (frequency) ([10]; CM): 1
- Serious adverse event: Relapse/possible relapse (frequency) ([10]; CM): 8
